Columns and labels:
[1] = Acute toxicity (LD50) in rats; conditions: rat, in vivo, substantially pure Z-isomeric form
IL-1 = assay: Effect on IL-1 synthesis and release (supernatants, homogenates, lysates of human monocytes); type: cell-based; conditions: chondrocyte bioassay and RIA
Procedure: 0.3 ml Phosphate-buffered saline, containing 1 % heat-in-activated AB-human serum, is added to washed adherent human monocytes and the cells are detached using a rubber-policeman. The solution containing the cells is then transferred to two other wells belonging to the same group. This procedure is repeated three times. The final pooled suspension (0.9 ml) is homogenized using a Dounce homogenizer (Kontes Co, Vineland, NJ) by five times 7 strokes with the B-pestle.
The lysate is prepared by adding to the washed human monocyte monolayers 0.3 ml 0.01 % digitonin in water.
50 μl homogenate is diluted to 500 μl with medium and added to confluent chondrocytes to monitor the metalloproteinase inducing activity as a measure of IL-I content.
The content of IL-1 was also determined in the culture media and the cell homogenates and cell lysates using the RIA-test (see 1.3.).

Calvaria halves = assay: Prevention of bone resorption: calcium release from calvaria; type: cell-based, Swiss albino mice; conditions: Mus musculus
Procedure: Calvaria halves (frontal and parietal parts) from 4-5 day Swiss albino mice are cultured on stainless steel grids in BGJ bone tissue culture medium, supplemented with 1 mg/ml BSA at the interphase of medium and gas in a humidified atmosphere (95% air/5% CO2 ) at 37° C. - c.f. Reynolds et al. in "Organ Culture in Biomed. Res." eds. Balls and Mamichendam, Cambridge University Press, p.p. 355-366 (1976).
Influence of test substance at varying concentrations on calcium release into :he test medium in the presence of calcium release stimulators [PGE2, LPS or […] (1,25D3)]is determined. For this purpose calcium concentrations are measured in bone culture supernatants obtained from 72 and 144 hour cultures and in TCA extracts of the calvaria at the end of culture by spectrometric methods [Gindler et al., Am. J. Clin. Pathol. 58, 376-382 (1972)]. Activity of lysosomal enzyme N-acetyl-glucose-aminidase in bone culture supernatants and in Triton 100 extracts of calvaria after culture is also determined employing the method of Banerjee and Basu, Biochem. J., 45, 113-118 (1975). Changes in enzyme activity are expressed as μ units/calvarium half and as % release.
(For the calculation of IC50 values the difference between resorption rate in control cultures and resorption in maximally stimulated cultures is taken as 100 %. The IC50 is taken as the concentration of test substance which inhibits maximum resorption by 50 %)

beagle dogs = assay: Tolerability / pilot toxicology in beagle dogs; type: in vivo; conditions: up to 200 mg/kg/day for 26 weeks
lysozyme = assay: Secretion of lysozyme from human monocytes; type: cell-based; conditions: human monocyte culture media
Procedure: Culture media from human monocytes are prepared as disclosed above. Lysozyme and lactate dehydrogenase (LDH) are monitored kinetically by using a Twinreader (Flow Laboratories AG) linked to a personal computer. Samples (50 μl) for LOH are mixed with 200 μl substrate mixture, containing in final concentrations 50 mM phosphate buffer, pH 7.5, 0.8 mM sodium pyruvate, 0.24 mM NADH and 0.04 % bovine albumin and the changes in absorbance at 340 nm are measured 11 times at 1-min intervals. The computer calculates the initial velocities which are used to determine the units. Samples (50 μl) for lysozyme are mixed with 100 μl suspension of 1.2 mg/ml M. Lysodeikticus in 67 mM phosphate buffer pH 6.2 and the changes in turbidity at 492 nm monitored 11 times at 4-min intervals. With every assay series, a calibration curve is made with crystalline hen egg-white lysozyme [J. Schnyder et.al., J. Exp. Med. 148, 435 (1978)]. No significant leakage of LDH from control and treated cell cultures is observed.

recombinant human IL-2 = assay: Recombinant human IL-2 induced mouse thymocyte proliferation; type: cell-based; conditions: 10 ng/ml rh IL-2
Procedure: Lymphocyte proliferation is the standard test for monokine activity. It is highly sensitive, though relatively unspecific, with IL-2, phorbol myristate acetate, concanavalin A' g-type-prostaglandin and indomethacin-nall effecting disturbance. Human monocyte culture media are prepared as described under I.I.b. above, diluted 1:10, 1:20 and 1:40 (v:v), and added to […] (obtained from C3H/HeJ mice) Dulbecco's modified Eagle's medium, containing 20 mM hydroxyethyl-piperazin-ethane-sulfonic acid, 12 mM NaHCO3, 2 mM glutamine, 2% foetal bovine serum, 10 μM 2-mercaptoethanol, […] and antibiotics. The cells are incubated for 2 days in 96-well culture plates and the proliferation rate determined using a ^3 H-thymidine pulse (1 μC/well) during the final 6 hours. The incorporated radioactivity is collected on filter paper and counted. […] Thus determined ED50 s for the compounds D2 and K1 each in substantially pure Z-isomeric form in a series of 2 separate experiments each with 3 parallel determinations are of the order of 30 μM
In order to rule out an antagonistic effect or a direct influence of the COMPOUNDS OF THE INVENTION on the proliferation of mouse thymocytes which are used above in the LAF-test, the effect of the COMPOUNDS OF THE INVENTION on the incorporation of ^3 H-thymidine Is determined after thymocyte stimulation with recombinant human IL-1 or IL-2.

adjuvant arthritis = assay: Disease modifying activity in an animal model of rheumatoid arthritis (adjuvant arthritis); type: in vivo, rat; conditions: substantially pure Z-isomeric form
Procedure: Following induction of adjuvant arthritis in 48 adult female rats, the test compound is administered orally for 40 days. Articular swelling and bone densitometry are measured at days 10, 20, 30 and 40 and compared with control animals receiving placebo. In addition, cartilage glycosaminoglycans (GAG) are measured in femoral condyles removed on completion of the treatment period. α2 -Macroglobulin is determined in serum on days 0, 3, 6, 9, 16 and 22.
The procedure for in vivo estimation of bone density in adult rats as used in the above test method is based on the radiographic densitometric method described by Albanese et al. in J. Amer. Ger. Soc. 17, 142-153 (1969). A longitudinal bone survey is conducted in the arthritic rats during the treatment with the test substance and compared with untreated arthritic rats and control animals. In vivo quantitative radiographic scanning is performed taking the trabecular mass as the parameter. […] Because of the characteristics of the system (image darkening representing increased Relative Optical Density) the recorded values are expressed as (1-x) where x Is the experimentally measured ROD in order to conform to the biological effect of X-rays on bone tissue (i.e. film darkening indicates decrease in bone density). […]

[2] = Acute toxicity (LD50) in mice; conditions: mouse, in vivo, substantially pure Z-isomeric form

Question: With `COC1=Cc2ccccc2/C(=C/C(=O)O)c2ccsc21` [Compound D2, [10-Methoxy-4H-benzo[4,5]cyclohepta[1,2-b]thiophen-4-ylidene]-acetic acid] as the compound, how does the LD50 at 168 h ([1]; iv, 7 days) read?
Answer: Its LD50 at 168 h is 50 mg/kg.

Question: What about the LD50 at 336 h ([1]; po, 14 days) of the same compound?
Answer: The LD50 at 336 h was 1720 mg/kg.

Question: What about the “levels of IL-1 in the supernatant media” value (IL-1) of the same compound?
Answer: Its value is “significantly reduce the levels of IL-1 in the supernatant media”.

Question: And the “mean cellular content of IL-1” value (IL-1; homogenates and lysates)?
Answer: The value was “only slightly reduced or remains unchanged”.

Question: What about the IC50 (Calvaria halves; in the presence of 1,25D3) of the same compound?
Answer: Its IC50 is 38 µM.

Question: And the IC50 (Calvaria halves; in the presence of LPS)?
Answer: The IC50 was 28 µM.

Question: What about the IC50 (Calvaria halves; in the presence of PGE2) of the same compound?
Answer: The IC50 was 22 µM.

Question: What about the tolerability (beagle dogs) of the same compound?
Answer: The tolerability was “generally well tolerated”.

Question: What about the release of lysozyme (lysozyme) of the same compound?
Answer: The release of lysozyme was “reduces the release of lysozyme only marginally and not under the level of unstimulated controls”.

Question: What about the “concentration dependency of influence on rh IL-2 induced proliferation” value (recombinant human IL-2) of the same compound?
Answer: The value was “no concentration dependency is detectable”.

Question: What about the “influence on recombinant human IL-2 induced proliferation” value (recombinant human IL-2; 3H-thymidine incorporation, mouse thymocytes) of the same compound?
Answer: The value was “no significant influence”.

Question: And the “protective effect on cartilage and bone” value (adjuvant arthritis; rats with adjuvant arthritis)?
Answer: Its value is “show a protective effect on cartilage and bone in rats with adjuvant arthritis”.

Question: What about the disease modifying activity (adjuvant arthritis; especially after 30 days treatment) of the same compound?
Answer: Its disease modifying activity is “exhibit disease modifying activity especially after a period of 30 days treatment”.

Question: And the LD50 at 168 h ([2]; iv, 7 days)?
Answer: Its LD50 at 168 h is 163 mg/kg.

Question: And the LD50 at 336 h ([2]; po, 14 days)?
Answer: The LD50 at 336 h was 1620 mg/kg.
